Experimental data published in patent publication US4772587A, “Dipeptide derivative of fatty acid” (Suntory Limited, priority 1985, dated 1988).
Non-standard residues stand in square brackets, D forms with d. Residues, ends and D or L forms follow the SMILES beside them. *: point of attachment. Oleoyl = CCCCCCCC/C=C\CCCCCCCC(=O)*; Stearoyl = CCCCCCCCCCCCCCCCCC(=O)*; Palmitoyl = CCCCCCCCCCCCCCCC(=O)*; Nle = CCCC[CH](N)C(=O)O; Cbz = O=C(OCc1ccccc1)*

Key:
[1] = target: prolyl endopeptidase (Elizabethkingia meningoseptica, UniProt P27028); assay: Measurement of anti-prolyl endopeptidase activity (decomposition of Z-glycyl-proline-β-naphthylamide); assay type: biochemical; conditions: substrate Z-glycyl-proline-β-naphthylamide, phosphate buffer pH 7.0
Procedure: The method of Yoshimoto and Tsuru (T. Yoshimoto and D. Tsuru, Agr. Biol. Chem. 42, 2417, 1978) was used to measure the anti-prolyl endopeptidase activities of several compounds of the present invention. A mixture of 0.0025M Z-glycyl-proline-β-naphthylamide (0.25 ml), 0.1M phosphate buffer (pH, 7.0; 0.99 ml) and a solution of a particular anti-prolyl endopeptidase compound (0.01 ml) was incubated in a test tube at 37° C. for 3 minutes. Thereafter, 0.1 ml of a solution of prolyl endopeptidase (0.2 U/ml) was added and the mixture was heated at 35° C. for 10 minutes. After the reaction, 2.0 ml of Triton X-100 in 1M acetate buffer (pH, 4.0) was added to the reaction mixture until the final concentration of the surfactant was 10%. The mixture was left at room temperature for 15 minutes and the absorbance (a) at 410 nm was measured.
A sample for blind test was prepared by using the buffer instead of the anti-prolyl endopeptidase compound and its absorbance (b) was also measured. The percent inhibition of prolyl endopeptidase was calculated by the formula: ((b-a)/b)×100, and the amount of a specific compound to achieve 50% inhibition (IC50) was determined.

[2] = test system: experimental amnesia caused in rats by scopolamine; assay: Preventive effect against experimental amnesia caused in rats by scopolamine (passive avoidance learning); assay type: in vivo, Wister male rats; conditions: for Avoidance time 24 hrs. later / Avoidance time 48 hrs. later / No. of amnesic rats/No. of rats tested / Percentage amnesia: scopolamine 3 mg/kg i.p. after learning
Procedure: Several of the anti-prolyl endopeptidase compounds of the present invention were checked for their ability to prevent the inhibition of long-term memory fixation by scopolamine. Solutions of physiological saline (0.3 ml) that contained selected compounds of the present inventions in varying amounts ([…], 0.25 mg, 0.1 mg, 0.025 mg and 0.010 mg/kg) were administered intraperitoneally once a day to Wister male rats (100-120 g). One hour after the administration, electric shocks (1.7 mA) were applied to the rats so that they would acquire passive avoidance learning. Immediately thereafter, scopolamine was administered intraperitoneally to each rat in an amount of 3 mg per kg of body weight.
The result of the test was assessed both 24 hours and 48 hours after the administration of scopolamine. The number of amnesic rats and of sound rats was counted for each of the control group (rats to which the test compounds had not been administered but to which only scopolamine and physiological saline had been administered intraperitoneally and the treated group (rats to which both the test compound and scopolamine had been administered). The results are shown in Table 3.

[3] = test system: experimental amnesia caused in rats by scopolamine; assay: as above; assay type: in vivo, Wister male rats; conditions: for Avoidance time 48 hrs. later: sample 1 mg/kg i.p., scopolamine 3 mg/kg i.p. after learning
[4] = administered orally (so in the source) in an amount of 0.025 mg/kg
[5] = administered orally (so in the source) in an amount of 0.1 mg/kg
[6] = administered orally (so in the source) in an amount of 1 mg/kg
[7] = dose of 0.01 mg/kg (orally as printed)

Sequence of prolyl endopeptidase (P27028 21-705): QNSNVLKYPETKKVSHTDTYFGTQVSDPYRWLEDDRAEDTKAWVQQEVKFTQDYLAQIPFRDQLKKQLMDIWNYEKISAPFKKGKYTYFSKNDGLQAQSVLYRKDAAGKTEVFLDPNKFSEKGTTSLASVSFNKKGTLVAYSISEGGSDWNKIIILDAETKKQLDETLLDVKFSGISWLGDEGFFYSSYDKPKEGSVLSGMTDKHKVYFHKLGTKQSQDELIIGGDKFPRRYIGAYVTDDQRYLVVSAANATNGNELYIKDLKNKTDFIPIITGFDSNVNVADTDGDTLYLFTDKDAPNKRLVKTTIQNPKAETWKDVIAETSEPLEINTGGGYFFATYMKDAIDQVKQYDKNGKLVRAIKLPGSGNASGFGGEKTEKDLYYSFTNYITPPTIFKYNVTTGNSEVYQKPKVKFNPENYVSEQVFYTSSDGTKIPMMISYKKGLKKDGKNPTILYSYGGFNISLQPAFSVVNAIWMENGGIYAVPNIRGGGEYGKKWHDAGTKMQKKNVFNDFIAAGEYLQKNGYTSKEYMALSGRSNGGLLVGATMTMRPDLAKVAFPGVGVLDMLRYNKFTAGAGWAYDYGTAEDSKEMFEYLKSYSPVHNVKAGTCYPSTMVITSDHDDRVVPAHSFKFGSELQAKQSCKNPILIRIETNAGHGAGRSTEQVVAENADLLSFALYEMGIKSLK

Compound	IC50 (amount of compound to achieve 50% inhibition) [1] [ng/test tube]	Avoidance time 24 hrs. later ([2]; sample 25 μg/kg i.p.) [s]	Avoidance time 48 hrs. later ([2]; sample 25 μg/kg i.p.) [s]	No. of amnesic rats/No. of rats tested ([2]; sample 25 μg/kg i.p.)	Percentage amnesia ([2]; sample 25 μg/kg i.p.) [%]	Avoidance time 24 hrs. later ([2]; sample 100 μg/kg i.p.) [s]	Avoidance time 48 hrs. later ([2]; sample 100 μg/kg i.p.) [s]	No. of amnesic rats/No. of rats tested ([2]; sample 100 μg/kg i.p.)	Percentage amnesia ([2]; sample 100 μg/kg i.p.) [%]	anti-amnesic action (in words) [3, 4]	anti-amnesic action (in words) [3, 5]	further results
CCCCCCCC/C=C\CCCCCCCC(=O)NC(C)C(=O)N1CCCC1C=O (stereo not shown) [SUAM 1092, oleoyl-Ala-pro-CHO]	12.0											
CCCCCCCC/C=C\CCCCCCCC(=O)NC(CC(C)C)C(=O)NC(CC(C)C)C(=O)N1CCCC1C=O (stereo not drawn) [SUAM 1158, oleoyl-Leu-Leu-Pro-CHO] (Oleoyl-Leu-Leu-Pro-aldehyde; configuration not given here)	80.0	300	300	0/10	0	300	300	0/10	0	excellent effect	strong anti-amnesic action	
CCCCCCCC/C=C\CCCCCCCC(=O)NC(CCCCNC(=O)OCc1ccccc1)C(=O)N1CCCC1C=O (stereo not shown) [SUAM 1216, oleoyl-Lys(Z)-Pro-CHO] (Oleoyl-Lys(Cbz)-Pro-aldehyde; configuration not given here)	0.6											
CCCCCCCC/C=C\CCCCCCCC(=O)NC(CCCC)C(=O)N1CCCC1C=O (stereo not drawn) [SUAM 1166, oleoyl-norLeu-Pro-CHO] (Oleoyl-[Nle]-Pro-aldehyde; configuration not given here)	0.8	300	300	0/10	0					strong anti-amnesic action		
CCCCCCCC/C=C\CCCCCCCC(=O)NC(CCSC)C(=O)N1CCCC1C=O (stereo not drawn) [SUAM 1214, oleoyl-Met-Pro-CHO] (Oleoyl-Met-Pro-aldehyde; configuration not given here)	0.6	300	300	0/10	0	300	276.4	1/10	10	considerably excellent anti-amnesic action		anti-amnesic action (in words) [2, 6]: no remarkable effect; anti-amnesic action (in words) [2, 7]: remarkable anti-amnesic action; Avoidance time 24 hrs. later ([2]; sample 10 μg/kg i.p.): 300 s; Avoidance time 48 hrs. later ([2]; sample 10 μg/kg i.p.): 300 s; No. of amnesic rats/No. of rats tested ([2]; sample 10 μg/kg i.p.): 0/10; Percentage amnesia ([2]; sample 10 μg/kg i.p.): 0%; Avoidance time 24 hrs. later ([2]; sample 250 μg/kg i.p.): 240.6 s; Avoidance time 48 hrs. later ([2]; sample 250 μg/kg i.p.): 226.0 s; No. of amnesic rats/No. of rats tested ([2]; sample 250 μg/kg i.p.): 2/10; Percentage amnesia ([2]; sample 250 μg/kg i.p.): 20%; Avoidance time 24 hrs. later ([2]; sample 1 mg/kg i.p.): 73.0 s; No. of amnesic rats/No. of rats tested ([2]; sample 1 mg/kg i.p.): 6/10; Percentage amnesia ([2]; sample 1 mg/kg i.p.): 60%; Avoidance time 48 hrs. later [3]: 103.0 s
linoleoyl-Leu-Pro-CHO [SUAM 1157]	0.6											
CCCCCCCCCCCCCCCC(=O)NC(CC(C)C)C(=O)N1CCCC1C=O (stereo not drawn) [SUAM 1155, palmitoyl-Leu-Pro-CHO] (Palmitoyl-Leu-Pro-aldehyde; configuration not given here)	0.7					300	300	0/10	0		strong anti-amnesic action	
CCCCCCCC/C=C\CCCCCCCC(=O)NC(CCC=O)C(=O)N1CCCC1C=O (stereo not shown) [SUAM 1217, oleoyl-Glu(CHO)-Pro-CHO]	0.3											
CCCCCCCC/C=C\CCCCCCCC(=O)N1CCCC1C(=O)N1CCCC1C=O (stereo not drawn) [SUAM 1215, Oleoyl-Pro-Pro-CHO] (Oleoyl-Pro-Pro-aldehyde; configuration not given here)	0.3	300	300	0/10	0					strong anti-amnesic action		anti-amnesic action (in words) [2, 7]: strong anti-amnesic action; Avoidance time 24 hrs. later ([2]; sample 10 μg/kg i.p.): 300 s; Avoidance time 48 hrs. later ([2]; sample 10 μg/kg i.p.): 300 s; No. of amnesic rats/No. of rats tested ([2]; sample 10 μg/kg i.p.): 0/10; Percentage amnesia ([2]; sample 10 μg/kg i.p.): 0%
CCCCCCCC/C=C\CCCCCCCC(=O)NC(CC(C)C)C(=O)N1CCCC1C=O (stereo not drawn) [SUAM 1140, Oleoyl-Leu-Pro-CHO] (Oleoyl-Leu-Pro-aldehyde; configuration not given here)	0.8	300	300	0/5	0	300	300	0/5	0		considerably excellent anti-amnesic action	anti-amnesic action (in words) [2, 6]: no remarkable effect; Avoidance time 24 hrs. later ([2]; sample 10 μg/kg i.p.): 185.0 s; Avoidance time 48 hrs. later ([2]; sample 10 μg/kg i.p.): 189.0 s; No. of amnesic rats/No. of rats tested ([2]; sample 10 μg/kg i.p.): 2/5; Percentage amnesia ([2]; sample 10 μg/kg i.p.): 40%; Avoidance time 24 hrs. later ([2]; sample 250 μg/kg i.p.): 263 s; Avoidance time 48 hrs. later ([2]; sample 250 μg/kg i.p.): 284 s; No. of amnesic rats/No. of rats tested ([2]; sample 250 μg/kg i.p.): 1/5; Percentage amnesia ([2]; sample 250 μg/kg i.p.): 20%; Avoidance time 24 hrs. later ([2]; sample 1 mg/kg i.p.): 73.0 s; No. of amnesic rats/No. of rats tested ([2]; sample 1 mg/kg i.p.): 3/5; Percentage amnesia ([2]; sample 1 mg/kg i.p.): 60%; Avoidance time 48 hrs. later [3]: 103.0 s
CCCCCCCCCCCCCCCCCC(=O)NC(CC(C)C)C(=O)N1CCCC1C=O (stereo not drawn) [SUAM 1154, stearoyl-Leu-Pro-CHO] (Stearoyl-Leu-Pro-aldehyde; configuration not given here)	1.0					300	300	0/10	0		strong anti-amnesic action	
